Like-named read-outs stand apart in the source and are kept apart here.
Key:
[1] = Phase I clinical trial GBM, safety, DLT and MTD
Description: (§2) It was a single arm, multi dose, dose escalating trial in newly diagnosed GBM patients. The total number of patients was 43, with about 5 patients per cohort. Patients who tolerated radiation (XRT) and temozolomide (TMZ) were recruited. Inclusion criteria included completion of XRT and TMZ without grade 3 or 4 toxicity and labs within acceptable range within 6 weeks of completing XRT. The end points included safety, maximum tolerated dose (MTD), and signal of activity.
(§3) Using modified continual reassessment method, MTD was defined for metronomic and standard dose TMZ.

[2] = Phase II clinical trial GBM, toxicity and tolerability
[3] = system: JNK, p38MAPK in MDA-MB-453 cells; test: Cell death signaling western blots (phospho-JNK, phospho-p38MAPK); conditions: MDA-MB-453, 100 μM
Description: Cells extracts were analyzed by SDS-PAGE either under reducing conditions or under non-reducing conditions in the case of Trx blot followed by blots anti-phospho-JNK, anti-phospho-p38MAPK, anti-cleaved-PARP and anti-Trx. Results are representative of three independent experiments.
After 2 h at 4° C., lysates were clarified by centrifugation and protein amounts were measured using the BCA assay (Pierce, Thermo scientific).
Equal amounts of proteins were resolved by SDS-PAGE under either non-reducing or reducing (5% 2-mercaptoethanol, 20 min at 60° C.) conditions, using 4-20% gels (Novex, Invitrogen), then subjected to semi-dry electrophoretic transfer onto nitrocellulose membranes.

[4] = molecular target: rat liver TrxR (Rattus norvegicus, UniProt O89049); test: Electron paramagnetic resonance, DEPMPO spin trapping; conditions: 100 μM Iniparib, NADPH, aerobic
rat liver TrxR, sequence (O89049 whole entry): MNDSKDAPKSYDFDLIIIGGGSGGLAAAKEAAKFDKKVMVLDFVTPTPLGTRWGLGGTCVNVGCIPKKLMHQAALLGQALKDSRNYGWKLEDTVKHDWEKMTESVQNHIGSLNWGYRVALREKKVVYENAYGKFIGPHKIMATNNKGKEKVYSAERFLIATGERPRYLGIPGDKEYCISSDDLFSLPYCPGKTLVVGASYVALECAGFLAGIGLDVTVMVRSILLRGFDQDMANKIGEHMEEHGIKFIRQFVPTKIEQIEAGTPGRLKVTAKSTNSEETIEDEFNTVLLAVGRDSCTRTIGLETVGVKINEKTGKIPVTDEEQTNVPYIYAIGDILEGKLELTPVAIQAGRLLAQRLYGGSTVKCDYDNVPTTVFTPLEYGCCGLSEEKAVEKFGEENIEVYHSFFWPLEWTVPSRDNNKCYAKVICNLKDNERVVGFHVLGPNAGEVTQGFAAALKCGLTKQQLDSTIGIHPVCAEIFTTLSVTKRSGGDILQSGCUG
Description: Computer simulations of the spectra were performed using the program written by Rockenbauer and Korecz (25). […] Then the reaction mixture was transferred by aspiration into a gas permeable PTFE tubing (Extruded Sub-Lite-Wall®, inside diameter: 0.635 mm, wall thickness: 0.051 mm, Zeus Industrial Products Ltd., Ireland). The tubing was folded twice in a W-shape and inserted into a 4-mm EPR quartz tube for EPR analysis. […] To confirm the involvement of superoxide in the appearance of the EPR signal, 100 units of superoxide dismutase (SOD) were added to the incubation prior to TrxR addition. For anaerobic experiments, the reaction mixture was immediately transferred into the gas permeable tubing and nitrogen gas was flushed through a septum cap in the sealed EPR quartz tube during the whole experiment.

[5] = molecular target: T1, human recombinant glutathione S-transferase pi (GSTP1) (Homo sapiens, UniProt P09211); test: In vitro Iniparib-glutathione conjugation; format: biochemical; conditions: 30 μM, 1 mM GSH
T1 construct: purchased Acris
T1 sequence (P09211 whole entry): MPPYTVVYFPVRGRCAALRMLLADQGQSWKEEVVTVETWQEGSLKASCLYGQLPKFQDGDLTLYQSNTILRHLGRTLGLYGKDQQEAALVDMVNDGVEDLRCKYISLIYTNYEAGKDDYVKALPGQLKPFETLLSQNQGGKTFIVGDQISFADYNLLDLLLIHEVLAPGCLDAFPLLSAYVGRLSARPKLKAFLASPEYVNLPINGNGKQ
Description: Online solid phase extraction (SPE) was performed using the fully automated Spark Holland Symbiosis™ (Emmen, The Netherlands) in eXtraction Liquid Chromatography (XLC) mode. The Symbiosis™ has previously been described in detail (18). HySphere™ C18 HD 7 μm SPE cartridges were used (Spark Holland). Each cartridge was initially conditioned with 2 ml methanol+0.5% formic acid (FA) and then equilibrated with 2 ml water+0.5% FA, both at flow-rates of 4 ml/min. Sample (25 μl) was aspirated and loaded onto the cartridge with 1 ml water+0.5% FA at a flow-rate of 1 ml/min. […] After elution, the right clamp was washed successively with 2 ml water+0.5% FA, 2 ml methanol+0.5% FA and 2 ml water+0.5% FA at 4 ml/min. […] The mobile phase composition was returned to starting conditions over 1 min and maintained during 6 min for column equilibration. The total run time was 27 min. Mass spectrometry was performed using the Thermo® TSQ Quantum Discovery Max in electrospray positive ionization mode (Thermo, US) with the following parameters: capillary voltage=4.0 kV, capillary temperature=300° C., sheath gas pressure=40, auxiliary gas pressure=5.

[6] = system: HCT116 cells; test: Apoptosis and necrosis assay (DiOC2(3)/DAPI flow cytometry); format: cell-based, human
Description: (§1) Cells were seeded in 6-well tissue culture plates (2.5×10^5 cells/well). MDA-MB-453 and HCT116 cells were first pre-treated or not for 48 h with 1 mM BSO. […] Cell-conditioned culture media, that may contain detached cells, were then collected and attached cells were trypsinized. Cells were combined with their corresponding conditioned media and collected by centrifugation at 1500 rpm for 10 min at 4° C. […] Cell- and DNA-associated fluorescence signals were quantified using a FACS-Aria (BD Biosciences) and data were analyzed with the […] software (BD Biosciences).

[7] = system: MDA-MB-453 cells; test: as above; format: cell-based, human; conditions: MDA-MB-453 without GSH depletion
Description: as §1

[8] = human, in vivo
Description: as §2, §3

NC(=O)c1ccc(I)c([N+](=O)[O-])c1 [Iniparib, 4-iodo-3-nitrobenzamide]
Phase 2 dose defined ([1]; IV 2×/wk with metronomic TMZ): 8.6 mg/kg | Phase 2 dose defined ([1]; IV 2×/wk with standard TMZ): 8 mg/kg | Acute kidney injury ([2]; Grade 3): 1 (1) N (%) | Anemia ([2]; Grade 3): 2 (2) N (%) | Atrial fibrillation ([2]; Grade 3): 1 (1) N (%) | Bronchial infection ([2]; Grade 3): 1 (1) N (%) | Cognitive disturbance ([2]; Grade 3): 1 (1) N (%) | Confusion ([2]; Grade 3): 1 (1) N (%) | Dehydration ([2]; Grade 3): 1 (1) N (%) | Dizziness ([2]; Grade 3): 1 (1) N (%) | Dysphasia ([2]; Grade 3): 1 (1) N (%) | Fatigue ([2]; Grade 3): 4 (5) N (%) | Generalized muscle weakness ([2]; Grade 3): 2 (2) N (%) | Headache ([2]; Grade 3): 1 (1) N (%) | Hyperkalemia ([2]; Grade 3): 1 (1) N (%) | Hypokalemia ([2]; Grade 3): 1 (1) N (%) | Hypotension ([2]; Grade 3): 1 (1) N (%) | Hypoxia ([2]; Grade 3): 1 (1) N (%) | Lymphocyte count decreased ([2]; Grade 3): 4 (5) N (%) | Nausea ([2]; Grade 3): 2 (2) N (%) | Neutrophil Count Decreased ([2]; Grade 3): 3 (4) N (%) | Platelet Count Decreased ([2]; Grade 3): 4 (5) N (%) | Rash maculo-papular ([2]; Grade 3): 3 (4) N (%) | Skin and subcutaneous tissue disorders ([2]; Grade 3): 1 (1) N (%) | Vomiting ([2]; Grade 3): 1 (1) N (%) | White Blood Cell Decreased ([2]; Grade 3): 5 (6) N (%) | Alanine aminotransferase increased ([2]; Grade 4): 1 (1) N (%) | Aspartate aminotransferase increased ([2]; Grade 4): 1 (1) N (%) | Flushing ([2]; Grade 4): 1 (1) N (%) | Hypertension ([2]; Grade 4): 1 (1) N (%) | Neutrophil Count Decreased ([2]; Grade 4): 5 (6) N (%) | Platelet Count Decreased ([2]; Grade 4): 11 (13) N (%) | White Blood Cell Decreased ([2]; Grade 4): 3 (4) N (%) | Acute kidney injury ([2]; Total): 1 (1) N (%) | Alanine aminotransferase increased ([2]; Total): 1 (1) N (%) | Anemia ([2]; Total): 2 (2) N (%) | Aspartate aminotransferase increased ([2]; Total): 1 (1) N (%) | Atrial fibrillation ([2]; Total): 1 (1) N (%) | Bronchial infection ([2]; Total): 1 (1) N (%) | Cognitive disturbance ([2]; Total): 1 (1) N (%) | Confusion ([2]; Total): 1 (1) N (%) | Dehydration ([2]; Total): 1 (1) N (%) | Dizziness ([2]; Total): 1 (1) N (%) | Dysphasia ([2]; Total): 1 (1) N (%) | Fatigue ([2]; Total): 4 (5) N (%) | Flushing ([2]; Total): 1 (1) N (%) | Generalized muscle weakness ([2]; Total): 2 (2) N (%) | Headache ([2]; Total): 1 (1) N (%) | Hyperkalemia ([2]; Total): 1 (1) N (%) | Hypertension ([2]; Total): 1 (1) N (%) | Hypokalemia ([2]; Total): 1 (1) N (%) | Hypotension ([2]; Total): 1 (1) N (%) | Hypoxia ([2]; Total): 1 (1) N (%) | Lymphocyte count decreased ([2]; Total): 4 (5) N (%) | Nausea ([2]; Total): 2 (2) N (%) | Neutrophil Count Decreased ([2]; Total): 8 (10) N (%) | Platelet Count Decreased ([2]; Total): 15 (18) N (%) | Rash maculo-papular ([2]; Total): 3 (4) N (%) | Skin and subcutaneous tissue disorders ([2]; Total): 1 (1) N (%) | Vomiting ([2]; Total): 1 (1) N (%) | White Blood Cell Decreased ([2]; Total): 8 (10) N (%) | well tolerated dose ([2]; with adjuvant TMZ): 17.2 mg/kg weekly | well tolerated dose ([2]; with radiation and TMZ): 16 mg/kg weekly | JNK activation, time of peak [3]: 10 h | DEPMPO/HOO• adduct signal [4]: five-fold | DEPMPO/HO• adduct signal [4]: doubled | reaction with GSH ([5]; absence of GSTP1): did not react | conversion of Iniparib to Iniparib-GS ([5]; recombinant GSTP1 added): complete conversion | treatment time from which apoptotic phenotype clearly detected ([6]; GSH-depleted HCT116, 100 μM): 6 h | cell death phenotype ([6]; GSH-depleted HCT116, 9 h, 100 μM): induced both necrotic and late apoptotic related phenotypes | apoptotic phenotype induction [7]: much slower than in HCT116 cells | DLT: fatigue [8]: 1 | DLT: hypersensitivity reaction [8]: 1 | DLT: rash [8]: 1 | DLT: thromboembolic event [8]: 1 | Fatigue [8]: 28 (65) No. (% of pts) | Nausea [8]: 18 (42) No. (% of pts) | additional grade 3 toxicities [8]: neutropenia, lymphopenia, nausea, and elevated AST | Fatigue ([8]; 3 cycles (10 weeks each)): 13 (65) No. (% of pts) | Nausea ([8]; 3 cycles (10 weeks each)): 9 (45) No. (% of pts) | Fatigue ([8]; 6 cycles (monthly)): 15 (65) No. (% of pts) | Nausea ([8]; 6 cycles (monthly)): 9 (39) No. (% of pts)
